Measured values published in patent US12319675B2 (Artax Biopharma Inc., priority 2018, dated 2025).

What was measured:
[1] = Microsomal stability assay, mouse; type: in vitro ADME; conditions: mouse microsomes, read-out: Microsomal Stability (T1/2 min) Mouse
Experimental: (§1) Microsomal stability assays were performed using mouse, rat, and human […] according to methods well-known in the art. Microsomal stability results are shown in Table 2 for selected compounds of the invention. The compound numbers correspond to the compound numbers in Table 1. […] “N/A” indicates not assayed.

[2] = Microsomal stability assay, rat; type: in vitro ADME; conditions: rat microsomes, read-out: Microsomal Stability (T1/2 min) Rat
Experimental: as §1

[3] = Microsomal stability assay, human; type: in vitro ADME; conditions: human microsomes, read-out: Microsomal Stability (T1/2 min) Human
Experimental: as §1

[4] = tested on: CD3 mediated phosphorylation of ZAP70 in Jurkat cells; experiment: CD3 mediated phosphorylation of ZAP70 in Jurkat cells (HTRF); type: cell-based; conditions: Homo sapiens, Jurkat cells stimulated with 20 μg/mL anti-CD3 antibody; for Emax: maximum inhibition, read-out: pZAP70 Inhibition - Maximum Percent Inhibition (% Inhibition); for IC50: read-out: pZAP70 Inhibition IC50
Experimental: Inhibition of CD3 mediated phosphorylation of ZAP70 in Jurkat cells was measured by a cellular based Homogeneous Time-Resolved Fluorescence (HTRF) assay utilizing a Total ZAP-70 HTRF kit.
Briefly, Jurkat cells (˜1.3×10^6 cells/mL) were harvested on the day of experimentation. Cells were washed with PBS and resuspended in Assay Buffer (RPMI 1640 media plus 10% FBS) and counted.
Jurkat cells were seeded in Assay media at a total volume of 4 μL/well (40K cells/well) in a 384-low volume white flat bottom plate. The cells were then incubated at 37° C./5% CO2 for 30 minutes. The cells were then treated in duplicate with test compounds (3×) and reference compounds (3×) in a total volume of 4 μL, respectively. A compound dilution scheme is exemplified in FIG. 1.
The plate was then transferred to an incubator maintained at 37° C./5% CO2 for 2 minutes. Following incubation, cells were stimulated with 20 μg/mL of anti-CD3 antibody (1 mg/mL stock) and assay media was used to bring the total well volume 4 μL/well. The plate was then transferred to the incubator maintained at 37° C./5% CO2 for 2.5 minutes. Following incubation, 4 μL of lysis buffer (4×) provided in the kit was added to each well. The plate was then incubated at RT for 1 hour with gentle shaking. Following incubation, 4 μL of detection mix was added to each well and the plate was sealed with a plate sealer and left overnight at RT in the dark.
The Envision reader was set-up for Eu^3+ cryptate and fluorescence emission was read at two different wavelengths (620 nm and 665 nm). • Excitation filter: UV2(TRF) 320 nm • Emission filter: 665 nm • 2nd Emission filter: Europium 615 nm • Measurement height (mm): 6.5 • Excitation light (%): 100 • Delay (μs): 50 • Window time (μs): 400 • Time between flashes (μs): 2000 • Number of flashes: 100 • Number of flashes for 2nd detector: 100
The data is represented by the signal form the two wavelengths:
The ratio of the signal is calculated for each individual well:
The data was plotted using Graph Pad Prism. The significance between untreated vs. treated groups was assessed by One-way ANOVA and Bonferroni posttest comparing all columns in the graph.
ZAP70 IC50 results are shown in Table 6 for select compounds of the invention. The compound numbers correspond to the compound numbers in Table 1. […] “ND” indicates not determined.
ZAP70 percent maximum inhibition results are shown in Table 7 for select compounds of the invention. The compound numbers correspond to the compound numbers in Table 1.

half-life [1] [min]	half-life [2] [min]	half-life [3] [min]	IC50 [4] [nM]	SMILES	Emax [4] [%]
< 10	< 10	10 to 30		O=C(C1=C(c2ccc(F)cc2)c2cc(OC(F)(F)F)ccc2OC1)N1CCCC1 [Compound I-7]	
> 30	> 30	> 30	1 to 10	CN1CCN(CC2=C(c3ccc(F)cc3)c3cc(OC(F)(F)F)ccc3OC2)CC1 [Compound I-11, 1-((4-(4-fluorophenyl)-6-(trifluoromethoxy)-2H-chromen-3-yl)methyl)-4-methylpiperazine]	≤ 30
< 10	< 10	< 10	> 50	CN1CCN(C(=O)C2=C(c3ccc(F)cc3)c3cc(OC4CC4)ccc3OC2)CC1 [Compound I-27]	≤ 30
> 30	> 30	> 30	< 1	Fc1ccc(C2=C(CN3CCCC3)COc3ccc(OCCc4nnn[nH]4)cc32)cc1 [Compound I-34, 5-(2-((4-(4-fluorophenyl)-3-(pyrrolidin-1-ylmethyl)-2H-chromen-6-yl)oxy)ethyl)-1H-tetrazole]	30 to 40
10 to 30	< 10	> 30	1 to 10	CC(C)(O)CCOc1ccc2c(c1)C(c1ccc(F)cc1)=C(CN1CCCC1)CO2 [Compound I-35, 4-((4-(4-fluorophenyl)-3-(pyrrolidin-1-ylmethyl)-2H-chromen-6-yl)oxy)-2-methylbutan-2-ol]	≤ 30
10 to 30	10 to 30	> 30	< 1	N/C(CCOc1ccc2c(c1)C(c1ccc(F)cc1)=C(CN1CCCC1)CO2)=N\O [Compound I-36, 3-((4-(4-fluorophenyl)-3-(pyrrolidin-1-ylmethyl)-2H-chromen-6-yl)oxy)-N-hydroxypropanimidamide]	40 to 50
> 30	10 to 30	> 30	1 to 10	O=c1[nH]c(CCOc2ccc3c(c2)C(c2ccc(F)cc2)=C(CN2CCCC2)CO3)no1 [Compound I-37, 3-(2-((4-(4-fluorophenyl)-3-(pyrrolidin-1-ylmethyl)-2H-chromen-6-yl)oxy)ethyl)-1,2,4-oxadiazol-5(2H)-one]	30 to 40
> 30	> 30	> 30	1 to 10	Fc1ccc(C2=C(CN3CCCC3)COc3ccc(OCCN4CCCCC4)cc32)cc1 [Compound I-39, 1-(2-((4-(4-fluorophenyl)-3-(pyrrolidin-1-ylmethyl)-2H-chromen-6-yl)oxy)ethyl)piperidine]	≤ 30
> 30	> 30	< 10	1 to 10	O=C(C1=C(c2ccc(F)cc2)c2cc(OCCN3CCCCC3)ccc2OC1)N1CCCC1 [Compound I-41]	30 to 40
< 10	> 30	< 10	10 to 50	CN1CCN(CCOc2ccc3c(c2)C(c2ccc(F)cc2)=C(C(=O)N2CCCC2)CO3)CC1 [Compound I-43]	30 to 40
< 10	< 10	> 30	> 50	CN1CCN(C(=O)C2=C(c3ccc(F)cc3)c3cc(F)ccc3OC2)CC1 [Compound I-58, (6-fluoro-4-(4-fluorophenyl)-2H-chromen-3-yl)(4-methylpiperazin-1-yl)methanone]	30 to 40
10 to 30	< 10	> 30	< 1	CN1CCN(CC2=C(c3ccc(F)cc3)c3cc(F)ccc3OC2)CC1 [Compound I-59, 1-((6-fluoro-4-(4-fluorophenyl)-2H-chromen-3-yl)methyl)-4-methylpiperazine]	30 to 40
< 10	< 10	10 to 30	1 to 10	CN(C)CCNCC1=C(c2ccc(F)cc2)c2cc(F)ccc2OC1 [Compound I-61, N′-((6-fluoro-4-(4-fluorophenyl)-2H-chromen-3-yl)methyl)-N^2,N^2-dimethylethane-1,2-diamine]	40 to 50
			1 to 10	O=C(C1=C(c2ccc(F)cc2)c2cc(F)ccc2OC1)N1CCCC1 [Compound I-62]	30 to 40
10 to 30	< 10	> 30	1 to 10	Fc1ccc(C2=C(CN3CCCC3)COc3ccc(F)cc32)cc1 [Compound I-63, 1-((6-fluoro-4-(4-fluorophenyl)-2H-chromen-3-yl)methyl)pyrrolidine]	30 to 40
			1 to 10	CN1CCN(CC2=C(c3ccc(F)cc3)c3cc(OCCC(=O)O)ccc3OC2)CC1 [Compound I-64]	30 to 40
			1 to 10	CC(C)(COc1ccc2c(c1)C(c1ccc(F)cc1)=C(CN1CCCC1)CO2)C(=O)O [Compound I-66]	> 50
			10 to 50	O=C(O)CCCOc1ccc2c(c1)C(c1ccc(F)cc1)=C(CN1CCCC1)CO2 [Compound I-67]	> 50
			< 1	O=C(O)CCOc1ccc2c(c1)C(c1ccc(C(F)(F)F)cc1)=C(CN1CCCC1)CO2 [Compound I-68]	> 50
			1 to 10	CN1CCN(CC2=C(c3ccc(C(F)(F)F)cc3)c3cc(OCCC(=O)O)ccc3OC2)CC1 [Compound I-69]	> 50
			1 to 10	CN(C)CCNCC1=C(c2ccc(C(F)(F)F)cc2)c2cc(OCCC(=O)O)ccc2OC1 [Compound I-70]	40 to 50
			1 to 10	CC(C)(COc1ccc2c(c1)C(c1ccc(C(F)(F)F)cc1)=C(CN1CCOCC1)CO2)C(=O)O [Compound I-79]	> 50
			1 to 10	CC(C)(COc1ccc2c(c1)C(c1ccc(F)cc1)=C(CN1CCOCC1)CO2)C(=O)O [Compound I-80]	> 50
			1 to 10	CC(C)(COc1ccc2c(c1)C(c1ccc(C(F)(F)F)cc1)=C(CN1CCCC1)CO2)C(=O)O [Compound I-81]	> 50

SMILES	half-life [1] [min]	half-life [2] [min]	half-life [3] [min]	IC50 [4] [nM]	Emax [4] [%]
CC(C)(O)CCOc1ccc2c(c1)C(c1ccc(F)cc1)=C(C(=O)N1CCCC1)CO2 [Compound I-42, (4-(4-fluorophenyl)-6-(3-hydroxy-3-methylbutoxy)-2H-chromen-3-yl)(pyrrolidin-1-yl)methanone]	< 10	10 to 30	< 10	> 50	≤ 30
